{
  "source": "patent US20230146455A1",
  "about": "“TREATMENT OF INFLAMMATORY DISEASES WITH PEPTIDES AND PHARMACEUTICAL COMPOSITIONS” (Yuyu Pharma, Inc., priority 2020, published 2023)",
  "key": {"[1]": {"test_system": "IL-2", "experiment": "Example 8 main study Luminex, LPS hPBMCs: IL-2", "format": "cell-based, human", "details": "for IL-2 Concentration, individual wells / IL-2 MFI, individual wells / IL-2 MFI, Mean / IL-2 Concentration, Mean: 24 h; for IL-2 MFI, Mean: LPS alone Mean 80.5; for IL-2 Concentration, Mean: LPS alone Mean 3988.7", "description": "(§1) Human PBMCs were pretreated with YY-101, YDE-011, YDE-043 or reference compound; Xiidra® at various concentration (ranging from […] to 500 nM) for 2 h before stimulation. An equal volume of 0.5% DMSO was used as a vehicle control. Then, the cells were treated with LPS at 5 ug/ml, which was selected based on the pilot study. The supernatants from treated cells were harvested at 24 h and placed in a 96 well for Luminex cytokine & chemokine profiling using a Luminex 200 multiplex assay (Luminex; R&D system, USA).\n(§2) The main study arm with triplicate wells per group in a 24-well plate: • 1. Blank • 2. PBMC: 0.5% DMSO • 3. PBMC+LPS (5 ug/ml) • 4. PBMC+YY-101 500 nM • 5. PBMC+YY-101 50 nM • 6. PBMC+YY-101 5 nM • 7. PBMC+YY-101 0.5 nM • 8. PBMC+LPS (5 ug/ml)+Xiidra® 500 nM • 9. PBMC+LPS (5 ug/ml)+Xiidra® 50 nM • 10. PBMC+LPS (5 ug/ml)+Xiidra® 5 nM • 11. PBMC+LPS (5 ug/ml)+Xiidra® 0.5 nM • 12. PBMC+LPS (5 ug/ml)+Xiidra® 0.05 nM • 13. PBMC+LPS (5 ug/ml)+Xiidra® 0.005 nM • 14. PBMC+LPS (5 ug/ml)+YY-101 500 nM • 15. PBMC+LPS (5 ug/ml)+YY-101 50 nM • 16. PBMC+LPS (5 ug/ml)+YY-101 5 nM • 17. PBMC+LPS (5 ug/ml)+YY-101 0.5 nM • 18. PBMC+LPS (5 ug/ml)+YY-101 0.05 nM • 19. PBMC+LPS (5 ug/ml)+YY-101 0.005 nM • 20. PBMC+LPS (5 ug/ml)+YDE-011 500 nM • 21. PBMC+LPS (5 ug/ml)+YDE-011 50 nM • 22. PBMC+LPS (5 ug/ml)+YDE-011 5 nM • 23. PBMC+LPS (5 ug/ml)+YDE-011 0.5 nM • 24. PBMC+LPS (5 ug/ml)+YDE-011 0.05 nM • 25. PBMC+LPS (5 ug/ml)+YDE-011 0.005 nM • 26. PBMC+LPS (5 ug/ml)+YDE-043 500 nM • 27. PBMC+LPS (5 ug/ml)+YDE-043 50 nM • 28. PBMC+LPS (5 ug/ml)+YDE-043 5 nM • 29. PBMC+LPS (5 ug/ml)+YDE-043 0.5 nM • 30. PBMC+LPS (5 ug/ml)+YDE-043 0.05 nM • 31. PBMC+LPS (5 ug/ml)+YDE-043 0.005 nM\n(§3) Multiplex assay was used to measure 30 cytokines and chemokines. The 1:200 diluted cell supernatant and serial dilution of the standard were dispensed into a 96 well plate at 50 ul/well. Then, the pre-mixed cocktail of antibody-coated magnetic beads was dispensed at 50 ul/well and incubated at room temperature for 2 h in a horizontal orbital microplate shaker at 800±500 rpm. The beads were washed using a magnetic device to prevent loss. The biotin-antibody was dispensed in 50 ul of each well and incubated at room temperature for 1 h in a shaker at 800±500 rpm. After washing, streptavidin-PE was added at 50 ul/well and incubated at room temperature for 30 min in a shaker under the same conditions. Finally, after washing, wash buffer (100 ul/well) was added to the plate and incubated in a shaker for 2 min. The Luminex™ 200 setting were set according to the manufacturer's protocol. The data was calculated with a standard five-parameter logistic nonlinear regression analysis of the data (xPonent software 4.2, USA). Results were presented as concentration (ng/ml or pg/ml)."}, "[2]": {"test_system": "IL-1 alpha/IL-1F1", "experiment": "Example 8 main study Luminex, LPS hPBMCs: IL-1 alpha/IL-1F1", "format": "cell-based, human", "description": "as §1, §2, §3"}, "[3]": {"details": "PBMC + LPS(5 ug/ml) + compound 0.005 nM"}, "[4]": {"details": "PBMC + LPS(5 ug/ml) + compound 0.05 nM"}, "[5]": {"details": "PBMC + LPS(5 ug/ml) + compound 0.5 nM"}, "[6]": {"details": "PBMC + LPS(5 ug/ml) + compound 5 nM"}, "[7]": {"details": "PBMC + LPS(5 ug/ml) + compound 50 nM"}, "[8]": {"details": "PBMC + LPS(5 ug/ml) + compound 500 nM"}, "[9]": {"details": "PBMC + LPS(5 ug/ml) + test article 0.005 nM, Mean"}, "[10]": {"details": "PBMC + LPS(5 ug/ml) + test article 0.005 nM, individual replicates"}, "[11]": {"details": "PBMC + LPS(5 ug/ml) + test article 0.05 nM, Mean"}, "[12]": {"details": "PBMC + LPS(5 ug/ml) + test article 0.05 nM, individual replicates"}, "[13]": {"details": "PBMC + LPS(5 ug/ml) + test article 0.5 nM, Mean"}, "[14]": {"details": "PBMC + LPS(5 ug/ml) + test article 0.5 nM, individual replicates"}, "[15]": {"details": "PBMC + LPS(5 ug/ml) + test article 5 nM, Mean"}, "[16]": {"details": "PBMC + LPS(5 ug/ml) + test article 5 nM, individual replicates"}, "[17]": {"details": "PBMC + LPS(5 ug/ml) + test article 50 nM, Mean"}, "[18]": {"details": "PBMC + LPS(5 ug/ml) + test article 50 nM, individual replicates"}, "[19]": {"details": "PBMC + LPS(5 ug/ml) + test article 500 nM, Mean"}, "[20]": {"details": "PBMC + LPS(5 ug/ml) + test article 500 nM, individual replicates"}},
  "note": "Several values for one entry are separate records, joined by “and”; a condition that tells them apart may be missing. Identical values can stand only once. Where a SMILES comes first, the peptide text is derived from it. [ ]: non-standard residue; d: D form. Hyp = O=C(O)[C@@H]1C[C@@H](O)CN1",
  "data": [
    {"smiles": "CC(C)C[C@H](NC(=O)CNC(=O)[C@H](CC(C)C)NC(=O)[C@H](CCC(N)=O)NC(=O)CNC(=O)[C@@H]1C[C@@H](O)CN1)C(=O)N[C@@H](C)C(=O)NCC(=O)N1CCC[C@H]1C(=O)N[C@@H](CCCCN)C(=O)O", "note": "[YDE-011] (H-[Hyp]GQLGLAGPK-OH)", "values": [
      {"measurement": "IL-2 Concentration, individual wells", "setting": "[1]; [3]", "value": "2239.1 pg/mL and 2082.5 pg/mL and 2707.7 pg/mL"},
      {"measurement": "IL-2 MFI, individual wells", "setting": "[1]; [3]", "value": "58.0 and 56.0 and 64.0"},
      {"measurement": "IL-2 MFI, Mean", "setting": "[1]; [3]", "value": 59.3},
      {"measurement": "IL-2 Concentration, Mean", "setting": "[1]; [3]", "value": 2343.1, "unit": "pg/mL"},
      {"measurement": "IL-2 Concentration, individual wells", "setting": "[1]; [4]", "value": "2707.7 pg/mL and 2473.6 pg/mL and 2824.6 pg/mL"},
      {"measurement": "IL-2 MFI, individual wells", "setting": "[1]; [4]", "value": "64.0 and 61.0 and 65.5"},
      {"measurement": "IL-2 MFI, Mean", "setting": "[1]; [4]", "value": 63.5},
      {"measurement": "IL-2 Concentration, Mean", "setting": "[1]; [4]", "value": 2668.6, "unit": "pg/mL"},
      {"measurement": "IL-2 Concentration, individual wells", "setting": "[1]; [5]", "value": "2239.1 pg/mL and 1925.7 pg/mL and 2200.0 pg/mL"},
      {"measurement": "IL-2 MFI, individual wells", "setting": "[1]; [5]", "value": "58.0 and 54.0 and 57.5"},
      {"measurement": "IL-2 MFI, Mean", "setting": "[1]; [5]", "value": 56.5},
      {"measurement": "IL-2 Concentration, Mean", "setting": "[1]; [5]", "value": 2121.6, "unit": "pg/mL"},
      {"measurement": "IL-2 Concentration, individual wells", "setting": "[1]; [6]", "value": "1532.6 pg/mL and 1611.3 pg/mL and 2551.7 pg/mL"},
      {"measurement": "IL-2 MFI, individual wells", "setting": "[1]; [6]", "value": "49.0 and 50.0 and 62.0"},
      {"measurement": "IL-2 MFI, Mean", "setting": "[1]; [6]", "value": 53.7},
      {"measurement": "IL-2 Concentration, Mean", "setting": "[1]; [6]", "value": 1898.5, "unit": "pg/mL"},
      {"measurement": "IL-2 Concentration, individual wells", "setting": "[1]; [7]", "value": "2160.8 pg/mL and 659.4 pg/mL and 2082.5 pg/mL"},
      {"measurement": "IL-2 MFI, individual wells", "setting": "[1]; [7]", "value": "57.0 and 38.0 and 56.0"},
      {"measurement": "IL-2 MFI, Mean", "setting": "[1]; [7]", "value": 50.3},
      {"measurement": "IL-2 Concentration, Mean", "setting": "[1]; [7]", "value": 1634.3, "unit": "pg/mL"},
      {"measurement": "IL-2 Concentration, individual wells", "setting": "[1]; [8]", "value": "2941.4 pg/mL and 579.2 pg/mL and 1729.4 pg/mL"},
      {"measurement": "IL-2 MFI, individual wells", "setting": "[1]; [8]", "value": "67.0 and 37.0 and 51.5"},
      {"measurement": "IL-2 MFI, Mean", "setting": "[1]; [8]", "value": 51.8},
      {"measurement": "IL-2 Concentration, Mean", "setting": "[1]; [8]", "value": 1750.0, "unit": "pg/mL"},
      {"measurement": "LPS-induced IL-2 (in words)", "setting": "[1]; at as low as 5 μM, LPS 5 ug/mL 24 hrs", "value": "significantly reduced"},
      {"measurement": "IL-1 alpha/IL-1F1 Concentration", "setting": "[2]; [9]", "value": 510.2, "unit": "pg/mL"},
      {"measurement": "IL-1 alpha/IL-1F1 MFI", "setting": "[2]; [9]", "value": 31.2},
      {"measurement": "IL-1 alpha/IL-1F1 Concentration", "setting": "[2]; [10]", "value": "595.1 pg/mL and 460.1 pg/mL and 475.3 pg/mL"},
      {"measurement": "IL-1 alpha/IL-1F1 MFI", "setting": "[2]; [10]", "value": "34.0 and 29.5 and 30.0"},
      {"measurement": "IL-1 alpha/IL-1F1 Concentration", "setting": "[2]; [11]", "value": 510.3, "unit": "pg/mL"},
      {"measurement": "IL-1 alpha/IL-1F1 MFI", "setting": "[2]; [11]", "value": 31.2},
      {"measurement": "IL-1 alpha/IL-1F1 Concentration", "setting": "[2]; [12]", "value": "535.6 pg/mL and 550.5 pg/mL and 444.9 pg/mL"},
      {"measurement": "IL-1 alpha/IL-1F1 MFI", "setting": "[2]; [12]", "value": "32.0 and 32.5 and 29.0"},
      {"measurement": "IL-1 alpha/IL-1F1 Concentration", "setting": "[2]; [13]", "value": 403.8, "unit": "pg/mL"},
      {"measurement": "IL-1 alpha/IL-1F1 MFI", "setting": "[2]; [13]", "value": 27.7},
      {"measurement": "IL-1 alpha/IL-1F1 Concentration", "setting": "[2]; [14]", "value": "429.6 pg/mL and 383.2 pg/mL and 398.7 pg/mL"},
      {"measurement": "IL-1 alpha/IL-1F1 MFI", "setting": "[2]; [14]", "value": "28.5 and 27.0 and 27.5"},
      {"measurement": "IL-1 alpha/IL-1F1 Concentration", "setting": "[2]; [15]", "value": 324.6, "unit": "pg/mL"},
      {"measurement": "IL-1 alpha/IL-1F1 MFI", "setting": "[2]; [15]", "value": 25.2},
      {"measurement": "IL-1 alpha/IL-1F1 Concentration", "setting": "[2]; [16]", "value": "256.0 pg/mL and 288.4 pg/mL and 429.6 pg/mL"},
      {"measurement": "IL-1 alpha/IL-1F1 MFI", "setting": "[2]; [16]", "value": "23.0 and 24.0 and 28.5"},
      {"measurement": "IL-1 alpha/IL-1F1 Concentration", "setting": "[2]; [17]", "value": 278.0, "unit": "pg/mL"},
      {"measurement": "IL-1 alpha/IL-1F1 MFI", "setting": "[2]; [17]", "value": 23.8},
      {"measurement": "IL-1 alpha/IL-1F1 Concentration", "setting": "[2]; [18]", "value": "320.3 pg/mL and 84.2 pg/mL and 429.6 pg/mL"},
      {"measurement": "IL-1 alpha/IL-1F1 MFI", "setting": "[2]; [18]", "value": "25.0 and 18.0 and 28.5"},
      {"measurement": "IL-1 alpha/IL-1F1 Concentration", "setting": "[2]; [19]", "value": 275.3, "unit": "pg/mL"},
      {"measurement": "IL-1 alpha/IL-1F1 MFI", "setting": "[2]; [19]", "value": 24.0},
      {"measurement": "IL-1 alpha/IL-1F1 Concentration", "setting": "[2]; [20]", "value": "535.6 pg/mL and 1.9 pg/mL and 288.4 pg/mL"},
      {"measurement": "IL-1 alpha/IL-1F1 MFI", "setting": "[2]; [20]", "value": "32.0 and 16.0 and 24.0"}
    ]}
  ]
}
